{"source": "patent US11213515B1", "about": "“Compounds that interact with the Ras superfamily for the treatment of cancers, inflammatory diseases, rasopathies, and fibrotic disease” (Shy Therapeutics LLC, priority 2017, dated 2022)", "molecular_target": "KRas G12D/Q61H double mutant (Homo sapiens (Human), UniProt P01116, G12D/Q61H)", "sequence (P01116-2 other isoform, or with tags, fused parts or gaps G12D/Q61H)": "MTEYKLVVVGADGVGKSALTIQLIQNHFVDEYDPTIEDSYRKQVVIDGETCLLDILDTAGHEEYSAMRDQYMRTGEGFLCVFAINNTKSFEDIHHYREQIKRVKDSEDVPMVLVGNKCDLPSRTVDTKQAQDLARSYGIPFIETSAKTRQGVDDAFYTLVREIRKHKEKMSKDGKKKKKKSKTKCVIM", "assay": "Ras GTP binding domain inhibition assay (labeled GTP)", "conditions": "20 μM compound", "protocol": "Buffer-I: • 50 mM Tris, pH 7.5 • 150 mM NaCl (optional) • 1 mM MgCl2 • 1 mM DTT. • KRas G12D mutant protein was expressed as a His-tagged protein. Purified His-KRas G12D protein was diluted in buffer-I to a final concentration of 3-10 μg/ml. • 200 μl of the diluted His-KRas G12D protein was added to a nickel coated 96 well plate and incubated overnight at 4° C. • The next day, wells were washed 3× in 200 μl of Buffer-I. • Then 200 μl of Buffer-I were added to each well in the presence of 1% DMSO. • Tested compounds were added to the protein-coated wells at a concentration of 20 μM, and incubated for 3 hours at room temperature. […]\nThen 22 μl of Cy3-GTP or Cy5-GTP was added to each well. The labeled GTP was incubated for 45 min. at room temperature. • Following GTP incubation, wells were washed 3× in Buffer-I, and 200 μl of Buffer-I were added to each well. • Following washes, the amount of bound labeled-GTP was measured with an Eppendorf AF2200 plate reader.\nBy substituting KRas G12D mutant protein with KRas G12C mutant, KRas wild type, KRas Q61H mutant, KRas G12D/Q61H double mutant or KRas G12C/Q61H double mutant under the assay conditions described above, KRas G12C mutant KRas wild type, KRas Q61H mutant, KRas G12D/Q61H double mutant and KRas G12C/Q61H double mutant inhibition, respectively, were each determined."}
{"smiles": "COCCn1c(SC(C)c2nc(-c3cccnc3)no2)nc2cc(Cl)ccc2c1=O", "note": "(stereo not shown)", "values": [{"measurement": "inhibition at 20 µM", "result": "1 to 25", "unit": "%"}]}
